In patent publication US8779142B2, “Azabicyclo compound and salt thereof” (Taiho Pharmaceutical Co., Ltd., priority 2009, dated 2014):

Tests used:
[1] = biological target: human HSP90 alpha protein (HSP90 N-terminal protein, amino acids 2-236) (Homo sapiens (Human), UniProt P07900); experiment: Measurement of HSP90-binding activity (AlphaScreen competitive assay, biotin-labeled geldanamycin); details: concentration inhibiting binding of biotin-labeled geldanamycin (40 nM) to purified HSP90 to 50% of control; read-out: HSP-binding activity IC50
[2] = system: SK-BR-3 cells; experiment: Measurement of cell growth inhibition (crystal violet staining method); format: cell-based; details: Homo sapiens; breast cancer SK-BR-3 cells, 72 hr culture with test substance

Row | Compound | IC50 [1] [nM] | IC50 [2] [nM]
1 | CC(C)c1nn(-c2ccc(C(N)=O)c(N[C@H]3CC[C@H](O)CC3)c2)c2nccc(-c3cccnc3)c12 [Example 7, 2-(Trans-4-hydroxycyclohexylamino)-4-{3-isopropyl-4-(pyridin-3-yl)-1H-pyrazolo[3,4-b]pyridin-1-yl}benzamide] | 340 | 230
2 | CC(C)c1nn(-c2ccc(C(N)=O)c(NCc3ccccc3)c2)c2nccc(-c3cnc4ccccc4c3)c12 [Example 20, 2-(Benzylamino)-4-{3-isopropyl-4-(quinolin-3-yl)-1H-pyrazolo[3,4-b]pyridin-1-yl}benzamide] | 3050 | 670
3 | CCNc1cc(C(N)=O)ccc1-n1nc(C(F)(F)F)c2c(-n3cnc(-c4cnn(C(C)C)c4)c3)ccnc21 [Example 187, 3-(Ethylamino)-4-{4-(4-(1-isopropyl-1H-pyrazol-4-yl)-1H-imidazol-1-yl)-3-(trifluoromethyl)-1H-pyrazolo[3,4-b]pyridin-1-yl}benzamide] | 620 | 710
4 | CC(C)c1nn(-c2ccc(C(N)=O)c(NCCN3CCCC3)c2)c2nccc(-c3cnc4ccccc4c3)c12 [Example 22, 4-{3-Isopropyl-4-(quinolin-3-yl)-1H-pyrazolo[3,4-b]pyridin-1-yl}-2-{2-(pyrrolidin-1-yl)ethylamino}benzamide] | 180 | 160
5 | CC(C)Nc1cc(C(N)=O)ccc1-n1nc(C(F)(F)F)c2c(-n3cnc(-c4cnn(C)c4)c3)ccnc21 [Example 164, 3-(Isopropylamino)-4-{4-(4-(1-methyl-1H-pyrazol-4-yl)-1H-imidazol-1-yl)-3-(trifluoromethyl)-1H-pyrazolo[3,4-b]pyridin-1-yl}benzamide] | 110 | 70
6 | COc1ccc(-c2cn(-c3ccnc4c3c(C(C)C)nn4-c3ccc(C(N)=O)c(N(O)C4CCCCC4)c3)cn2)cc1 [Example 83, 2-(Hydroxycyclohexylamino)-4-{3-isopropyl-4-(4-(4-methoxyphenyl)-1H-imidazol-1-yl)-1H-pyrazolo[3,4-b]pyridin-1-yl}benzamide] | 400 | 110
7 | CC(C)c1nn(-c2ccc(C(N)=O)c(NC3CCC(O)CC3)c2)c2nccc(-n3cnc(-c4ccoc4)c3)c12 (stereo not drawn) [Example 90, 4-{4-(4-(Furan-3-yl)-1H-imidazol-1-yl)-3-isopropyl-1H-pyrazolo[3,4-b]pyridin-1-yl}-2-(4-hydroxycyclohexylamino)benzamide] | 230 | 40
8 | CC(C)c1nn(-c2ccc(C(N)=O)c(N(O)C3CCCCC3)c2)c2nccc(-n3cnc(-c4cnn(Cc5ccccc5)c4)c3)c12 [Example 93, 2-(Hydroxycyclohexylamino)-4-{3-isopropyl-4-(4-(1-benzyl-1H-pyrazol-4-yl)-1H-imidazol-1-yl)-1H-pyrazolo[3,4-b]pyridin-1-yl}benzamide] | 320 | 70
9 | CC(C)c1nn(-c2ccc(C(N)=O)c(NCCN(C)C)c2)c2nccc(-c3cnc4ccccc4c3)c12 [Example 27, 2-{2-(Dimethylamino)ethylamino}-4-{3-isopropyl-4-(quinolin-3-yl)-1H-pyrazolo[3,4-b]pyridin-1-yl}benzamide] | 240 | 130
10 | CCc1cn(-c2ccc(C(N)=O)c(N[C@H]3CC[C@H](N)CC3)c2)c2nccc(-c3cnc4ccccc4c3)c12 [Example 72, 2-(Trans-4-aminocyclohexylamino)-4-{3-ethyl-4-(quinolin-3-yl)-1H-pyrrolo[2,3-b]pyridin-1-yl}benzamide] | 260 | 110
11 | Cc1cc(C(N)=O)ccc1-n1nc(C(C)C)c2c(-n3cnc(-c4cccnc4)c3)ccnc21 [Example 135, 4-{3-Isopropyl-4-(4-(pyridin-3-yl)-1H-imidazol-1-yl)-1H-pyrazolo[3,4-b]pyridin-1-yl}-3-methylbenzamide] | 400 | 690
12 | Cc1cn(-c2ccc(C(N)=O)c(NC3CCC(O)CC3)c2)c2nccc(-n3cnc(-c4ccccc4)c3)c12 (stereo not drawn) [Example 97, 2-(4-Hydroxycyclohexylamino)-4-{3-methyl-4-(4-phenyl-1H-imidazol-1-yl)-1H-pyrrolo[2,3-b]pyridin-1-yl}benzamide] | 240 | 70
13 | CCNc1cc(C(N)=O)ccc1-n1nc(C(C)C)c2c(-n3cnc(-c4cnn(C)c4)c3)ccnc21 [Example 121, 3-(Ethylamino)-4-{3-isopropyl-4-(4-(1-methyl-1H-pyrazol-4-yl)-1H-imidazol-1-yl)-1H-pyrazolo[3,4-b]pyridin-1-yl}benzamide] | 180 | 160
14 | NC(=O)c1ccc(-n2cc(C(F)(F)F)c3c(-c4cnc5ccccc5c4)ccnc32)cc1N[C@H]1CC[C@H](O)CC1 [Example 43, 2-(Trans-4-hydroxycyclohexylamino)-4-{4-(quinolin-3-yl)-3-(trifluoromethyl)-1H-pyrrolo[2,3-b]pyridin-1-yl}benzamide] | 100 | 10
15 | CC(C)Nc1cc(C(N)=O)ccc1-n1nc(C(C)C)c2c(-n3cnc(-c4cnn(C)c4)c3)ccnc21 [Example 120, 4-{3-Isopropyl-4-(4-(1-methyl-1H-pyrazol-4-yl)-1H-imidazol-1-yl)-1H-pyrazolo[3,4-b]pyridin-1-yl}-3-(isopropylamino)benzamide] | 200 | 140
16 | CNc1cc(-n2nc(C(C)C)c3c(-n4cnc(-c5cnn(C)c5)c4)ccnc32)ccc1C(N)=O [Example 110, 4-{3-Isopropyl-4-(4-(1-methyl-1H-pyrazol-4-yl)-1H-imidazol-1-yl)-1H-pyrazolo[3,4-b]pyridin-1-yl}-2-(methylamino)benzamide] | 310 | 490
17 | C=C(C)c1cc(C(N)=O)ccc1-n1nc(C(F)(F)F)c2c(-n3cnc(-c4cnn(C)c4)c3)ccnc21 [Example 174, 4-{4-(4-(1-Methyl-1H-pyrazol-4-yl)-1H-imidazol-1-yl)-3-(trifluoromethyl)-1H-pyrazolo[3,4-b]pyridin-1-yl}-3-(prop-1-en-2-yl)benzamide] | 320 | 380
18 | CC(C)c1nn(-c2ccc(C(N)=O)c(Nc3ccc(N4CCOCC4)cc3)c2)c2nccc(-c3cnc4ccccc4c3)c12 [Example 33, 4-{3-Isopropyl-4-(quinolin-3-yl)-1H-pyrazolo[3,4-b]pyridin-1-yl}-2-(4-morpholinophenylamino)benzamide] | 1140 | 70
19 | COc1cncc(-c2ccnc3c2c(C(C)C)nn3-c2ccc(C(N)=O)c(N[C@H]3CC[C@H](O)CC3)c2)c1 [Example 11, 2-(Trans-4-hydroxycyclohexylamino)-4-{3-isopropyl-4-(5-methoxypyridin-3-yl)-1H-pyrazolo[3,4-b]pyridin-1-yl}benzamide] | 550 | 160
20 | CC(C)c1nn(-c2ccc(C(N)=O)c(N[C@H]3CC[C@H](O)CC3)c2)c2nccc(-c3cnc4[nH]ccc4c3)c12 [Example 13, 2-(Trans-4-hydroxycyclohexylamino)-4-{3-isopropyl-4-(1H-pyrrolo[2,3-b]pyridin-5-yl)-1H-pyrazolo[3,4-b]pyridin-1-yl}benzamide] | 430 | 150
21 | Cn1cc(-c2cn(-c3ccnc4c3c(C(F)(F)F)nn4-c3ccc(C(N)=O)cc3C3CC3)cn2)cn1 [Example 173, 3-(Cyclopropyl)-4-{4-(4-(1-methyl-1H-pyrazol-4-yl)-1H-imidazol-1-yl)-3-(trifluoromethyl)-1H-pyrazolo[3,4-b]pyridin-1-yl}benzamide] | 120 | 80
